Measured values as given in US10414768B2, “Compounds for treating cystic fibrosis” (CENTRE NATIONAL DE LA RECHERCHE SCIENTIFIQUE (CNRS), priority 2014, dated 2019).

Molecular target: T1, F508del-CFTR (Homo sapiens, UniProt P13569, DEL508-508)
T1 construct: expressed in transfected cells; host or cells: HeLa cells (spTCF-ΔF), selected with Zeocin
Assay: Iodide (125I) efflux from HeLa cells expressing F508del-CFTR
Assay type: cell-based
Conditions: HeLa, activators Fsk 10 μM + Gst 30 μM, relative to VX809 normalized at 100%, untreated cells 3.6%
Procedure: Pharmacology, chemicals and reagents. The CFTR activator forskolin and potentiator genistein (Illek et al., 1995) were purchased from LC Laboratories (PKC Pharmaceuticals, Woburn, Mass.). We purchased DIDS (5-Isothiocyanato-2-[2-(4-isothiocyanato-2-sulfophenyl)ethenyl]benzene-1-sulfonic acid) and VX809 (3-(6-(1-(2,2-difluorobenzo[d][1,3]dioxol-5-yl)cyclopropanecarboxamido)-3-methylpyridin-2-yl)benzoic acid) from Selleckchem (Houston, USA). Stock solutions of F (10 mM), G (30 mM), CFTRinh-172 (10 mM), VX809 (10 mM), were prepared in DMSO. We prepared stock solution of iminosugars, miglustat and IsoLAB ([1,4-dideoxy-2-hydroxymethyl-1,4-imino-L-threitol]) dissolved in water (100 mM) before further dilution. Methods Cell culture. HeLa cells expressing wild-type CFTR (spTCF-wt) or F508del-CFTR (spTCF-ΔF) were cultured in Dulbecco's modified Eagle's medium+GlutaMAX™-I (Invitrogen) supplemented with 8% (v/v) fetal bovine serum (FBS), 1% (v/v) penicillin/streptomycin and were selected using Zeocin (50 μg/mL). Both cell lines were grown in standard culture conditions (37° C., 5% C02). Cells were plated in 35 mm plastic dishes for whole-cell patch-clamp recordings and western blot analysis and in 96-well plates for cytotoxicity assay. For all cell culture, culture media were renewed every 2 days. Western Blot analysis. Cell lysates (10 mM Tris, 1% Nonidet P-40, 0.5% sodium deoxycholate, pH 7.5) were separated 72 h after seeding for HeLa cells by 5% SDS-PAGE (50 μg of protein/well). After saturation, nitrocellulose membrane was incubated overnight at 4° C. in phosphate-buffered saline, 0.1% Tween 20 with 1 μg/ml mouse anti-CFTR monoclonal antibody (clone MAB3480; Chemicon International, Millipore Bioscience Research Reagents, Temecula, Calif.). After washing, goat peroxidase-conjugated anti-mouse IgG (1:10 000; Sigma-Aldrich) was used as secondary antibody. CFTR was visualized by chemiluminescence with ECL Western blotting detection reagent (GE Healthcare, Buckinghamshire, UK). Iodide efflux. CFTR chloride channel activity was assayed by measuring the rate of iodide (^125I) efflux from living cells. All experiments were performed with a MultiPROBE® IIex robotic liquid handling system (Perkin Elmer Life Sciences, Courtaboeuf, France). At the beginning of each experiment, cells were washed twice with efflux buffer containing (in mM) 136.9 NaCl, 5.4 KCl, 0.3 KH2PO4, 0.3 NaH2PO4, 1.3 CaCl2, 0.5 MgCl2, 0.4 MgSO4, 5.6 glucose and 10 HEPES, pH 7.4. Cells were incubated in efflux buffer containing Na^125I (1 μCi Na^125I/ml, NEN, Boston, Mass.) during 1 h at 37° C., then washed with efflux medium to remove extracellular ^125I. The loss of intracellular ^125I was determined by removing the medium with efflux buffer every 1 min for up to 10 min. The first three aliquots were used to establish a stable baseline in efflux buffer alone. A medium containing the activators of CFTR (Fsk 10 μM+Gst 30 μM) and the appropriate drug was used for the remaining aliquots. Residual radioactivity was extracted with 0.1 N NaOH/0.1% SDS, and determined using a Packard Cobra™ II gamma counter (Perkin Elmer life Sciences, Courtaboeuf, France). The fraction of initial intracellular ^125I lost during each time point was collected and time-dependent rates of ^125I efflux calculated from: ln (^125It1/^125It2)/(t1−t2) where ^125It is the intracellular ^125I at time t, and t1 and t2 successive time points. Curves were constructed by plotting rate of 125I versus time. All comparisons were based on maximal values for the time-dependent rates (k=peak rates, min−1) excluding the points used to establish the baseline (kpeak−kbasal, min^−1), and histograms were presented as percentage of activation. Time dependence. Time dependence of the compounds was assayed by measuring the time necessary for an optimal correction of the protein F508del-CFTR. […]

T1 sequence (P13569 with tags, fused parts or gaps DEL508-508): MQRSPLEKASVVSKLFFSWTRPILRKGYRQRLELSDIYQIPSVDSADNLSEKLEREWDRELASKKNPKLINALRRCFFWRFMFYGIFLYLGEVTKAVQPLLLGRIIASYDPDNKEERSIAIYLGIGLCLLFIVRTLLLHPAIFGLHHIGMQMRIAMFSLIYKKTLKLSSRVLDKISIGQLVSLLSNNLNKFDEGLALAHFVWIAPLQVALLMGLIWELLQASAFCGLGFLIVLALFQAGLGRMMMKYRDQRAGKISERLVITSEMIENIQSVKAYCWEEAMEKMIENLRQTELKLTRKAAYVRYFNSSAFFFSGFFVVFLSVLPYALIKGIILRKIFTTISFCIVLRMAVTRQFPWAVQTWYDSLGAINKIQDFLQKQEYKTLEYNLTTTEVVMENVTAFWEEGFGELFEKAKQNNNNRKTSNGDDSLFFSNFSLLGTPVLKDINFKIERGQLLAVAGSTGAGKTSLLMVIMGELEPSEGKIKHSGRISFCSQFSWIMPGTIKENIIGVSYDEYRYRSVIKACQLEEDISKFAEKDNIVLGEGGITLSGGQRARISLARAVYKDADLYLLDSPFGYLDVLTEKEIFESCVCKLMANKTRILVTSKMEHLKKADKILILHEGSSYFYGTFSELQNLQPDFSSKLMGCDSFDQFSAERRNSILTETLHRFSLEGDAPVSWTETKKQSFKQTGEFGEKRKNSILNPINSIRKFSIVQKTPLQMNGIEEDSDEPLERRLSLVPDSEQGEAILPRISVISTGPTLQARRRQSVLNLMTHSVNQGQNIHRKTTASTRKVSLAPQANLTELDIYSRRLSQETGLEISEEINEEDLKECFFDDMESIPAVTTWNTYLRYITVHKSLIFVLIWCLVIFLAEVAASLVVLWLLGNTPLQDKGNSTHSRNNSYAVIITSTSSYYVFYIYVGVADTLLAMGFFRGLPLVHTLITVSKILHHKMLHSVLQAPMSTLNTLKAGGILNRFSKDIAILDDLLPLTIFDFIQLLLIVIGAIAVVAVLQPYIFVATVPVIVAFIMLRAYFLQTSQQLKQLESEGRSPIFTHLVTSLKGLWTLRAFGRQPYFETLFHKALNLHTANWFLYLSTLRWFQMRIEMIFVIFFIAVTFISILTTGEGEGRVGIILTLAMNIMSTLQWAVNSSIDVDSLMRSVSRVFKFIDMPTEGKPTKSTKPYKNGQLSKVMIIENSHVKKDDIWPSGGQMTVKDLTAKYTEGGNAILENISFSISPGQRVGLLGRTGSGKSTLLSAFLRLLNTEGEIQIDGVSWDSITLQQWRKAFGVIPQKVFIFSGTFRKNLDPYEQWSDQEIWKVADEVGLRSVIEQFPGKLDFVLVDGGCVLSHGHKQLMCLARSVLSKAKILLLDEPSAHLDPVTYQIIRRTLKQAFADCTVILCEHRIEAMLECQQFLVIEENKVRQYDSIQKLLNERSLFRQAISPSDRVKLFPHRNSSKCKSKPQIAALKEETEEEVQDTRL

Row | SMILES | Emax
1 | NC(=O)c1ccc(-n2cnc3c(Cl)nc(Cl)nc32)cc1 [Compound 79, 4-(2,6-dichloro-9H-purin-9-yl)benzamide] | 10 to 35%
2 | Clc1nc(Cl)c2ncn(-c3ccccc3)c2n1 [Compound 80, 2,6-dichloro-9-phenyl-9H-purine] | 10 to 35%
3 | C[C@H](Nc1nc(Cl)nc2c1ncn2-c1ccccc1)C(=O)OC(C)(C)C [Compound 81, (S)-tert-butyl 2-((2-chloro-9-phenyl-9H-purin-6-yl)amino)propanoate] | 10 to 35%
4 | C[C@H](Nc1nc(NCCCc2ccccc2)nc2c1ncn2-c1ccccc1)C(=O)OC(C)(C)C [Compound 82, (S)-tert-butyl 2-((9-phenyl-2-((3-phenylpropyl)amino)-9H-purin-6-yl)amino)propanoate] | 10 to 35%
5 | C[C@H](Nc1nc(NCCCc2ccccc2)nc2c1ncn2-c1ccccc1)C(=O)O [Compound 83, (S)-2-((9-phenyl-2-((3-phenylpropyl)amino)-9H-purin-6-yl)amino)propanoic acid] | 10 to 35%
6 | COc1ccc(CCNc2nc(NCc3ccc(OC)cc3)c3ncn(-c4ccccc4)c3n2)cc1 [Compound 85, N6-(4-methoxybenzyl)-N2-(4-methoxyphenethyl)-9-phenyl-9H-purine-2,6-diamine] | 10 to 35%
7 | CC(=O)c1ccc(-n2cnc3c(Cl)nc(Cl)nc32)cc1 [Compound 86, 1-(4-(2,6-dichloro-9H-purin-9-yl)phenyl)ethanone] | 10 to 35%
8 | COc1ccc(CNc2nc(NCc3ccc(OC)cc3)c3nc[nH]c3n2)cc1 [Compound 88, N2,N6-bis(4-methoxybenzyl)-9H-purine-2,6-diamine] | 10 to 35%
9 | COc1ccc(CNc2nc(Cl)nc3c2ncn3Cc2ccc(C(N)=O)cc2)cc1 [Compound 89, 4-((2-chloro-6-((4-methoxybenzyl)amino)-9H-purin-9-yl)methyl)benzamide] | 10 to 35%
10 | COC(=O)c1ccc(-n2cnc3c(Cl)nc(Cl)nc32)cc1 [Compound 90, methyl 4-(2,6-dichloro-9H-purin-9-yl)benzoate] | 10 to 35%
11 | COc1ccc(-n2cnc3c(O)nc(N)nc32)cc1OC [Compound 91, 2-amino-9-(3,4-dimethoxyphenyl)-9H-purin-6-ol] | 10 to 35%
12 | Nc1nc(O)c2ncn(-c3ccccc3)c2n1 [Compound 92, 2-amino-9-phenyl-9H-purin-6-ol] | 10 to 35%
13 | NC(=O)c1ccc(Cn2cnc3c(Cl)nc(Cl)nc32)cc1 [Compound 93, 4-((2,6-dichloro-9H-purin-9-yl)methyl)benzamide] | 10 to 35%
14 | Clc1nc(Cl)c2ncn(-c3cccnc3)c2n1 [Compound 94, 2,6-dichloro-9-(pyridin-3-yl)-9H-purine] | 10 to 35%
15 | NC(=O)c1cccc(-n2cnc3c(Cl)nc(Cl)nc32)c1 [Compound 95, 3-(2,6-dichloro-9H-purin-9-yl)benzamide] | 10 to 35%
16 | NC(=O)c1ccc(Nc2cc(O)nc(O)n2)cc1 [Compound 96, 4-((2,6-dihydroxypyrimidin-4-yl)amino)benzamide] | 10 to 35%
17 | COc1ccc(CNc2nc(Cl)nc3c2ncn3C2CCCCO2)cc1 (stereo not shown) [Compound 97, 2-chloro-N-(4-methoxybenzyl)-9-(tetrahydro-2H-pyran-2-yl)-9H-purin-6-amine] | 10 to 35%
18 | COc1ccc(CNc2nc(OCCc3ccccc3)nc3c2ncn3C2CCCCO2)cc1 (stereo not shown) [Compound 98, N-(4-methoxybenzyl)-2-phenethoxy-9-(tetrahydro-2H-pyran-2-yl)-9H-purin-6-amine] | 10 to 35%
19 | Nc1nc(Cl)c(NC=O)c(Cl)n1 [Compound 101, N-(2-amino-4,6-dichloropyrimidin-5-yl)formamide] | 35 to 60%
20 | Nc1ncnc(N)c1N [Compound 102, pyrimidine-4,5,6-triamine] | ≥ 60%

Row | SMILES | Emax
21 | O=[N+]([O-])c1c(O)nc(O)nc1Cl [Compound 103, 6-chloro-5-nitropyrimidine-2,4-diol] | 10 to 35%
22 | Nc1nc(NCCc2ccc(F)cc2)nc2[nH]cnc12 [Compound 104, N2-(4-fluorophenethyl)-9H-purine-2,6-diamine] | 35 to 60%
23 | NC(=O)c1ccc(Nc2ccncc2[N+](=O)[O-])cc1 [Compound 105, 4-((3-nitropyridin-4-yl)amino)benzamide] | ≥ 60%
24 | NC(=O)c1ccc(Nc2ncnc(Cl)c2[N+](=O)[O-])cc1 [Compound 106, 4-((6-chloro-5-nitropyrimidin-4-yl)amino)benzamide] | 10 to 35%
25 | NC(=O)c1ccc(Nc2ncncc2N)cc1 [Compound 107, 4-((5-aminopyrimidin-4-yl)amino)benzamide] | ≥ 60%
26 | NC(=O)c1ccc(Sc2ncnc(Cl)c2N)cc1 [Compound 108, 4-((5-amino-6-chloropyrimidin-4-yl)thio)benzamide] | 10 to 35%
27 | Cc1ccc(Nc2ncnc(Cl)c2N)cc1 [Compound 109, 6-chloro-N4-(p-tolyl)pyrimidine-4,5-diamine] | 35 to 60%
28 | Nc1c(Cl)ncnc1Nc1ccc(F)cc1 [Compound 110, 6-chloro-N4-(4-fluorophenyl)pyrimidine-4,5-diamine] | 10 to 35%
29 | Nc1cncnc1Cl [Compound 111, 4-chloropyrimidin-5-amine] | 35 to 60%
30 | NC(=O)c1ccc(-n2ccc3c(Cl)ncnc32)cc1 [Compound 112, 4-(4-chloro-7H-pyrrolo[2,3-d]pyrimidin-7-yl)benzamide] | 10 to 35%
31 | NC(=O)c1ccc(-c2nc(N)nc3[nH]cnc23)cc1 [Compound 113, 4-(2-amino-9H-purin-6-yl)benzamide] | ≥ 60%
32 | NC(=O)c1ccc(Nc2c[n+]([O-])ccc2[N+](=O)[O-])cc1 [Compound 114, 3-((4-carbamoylphenyl)amino)-4-nitropyridine 1-oxide] | ≥ 60%
33 | NC(=O)c1ccc(Nc2ncccc2N)cc1 [Compound 115, 2-((4-carbamoylphenyl)amino)-pyridin-3-aminium chloride] | ≥ 60%
34 | NC(=O)c1ccc(-n2cnc3cncnc32)cc1 [Compound 116, 4-(9H-purin-9-yl)benzamide] | 35 to 60%
35 | Nc1nc(Nc2ccc(CO)cc2)c2ncn(-c3ccc(CO)cc3)c2n1 [Compound 117, (4-(2-amino-6-((4-(hydroxymethyl)phenyl)-amino)-9H-purin-9-yl)phenyl)methanol] | 35 to 60%
36 | C[C@H](Nc1nc(Cl)nc2c1ncn2-c1ccccc1)C(=O)O [Compound 118, (S)-2-((2-chloro-9-phenyl-9H-purin-6-yl)amino)propanoic acid] | ≥ 60%
37 | NC(=O)c1ccc(Cn2cnc3c(N[C@@H](CO)C(=O)O)nc(Cl)nc32)cc1 [Compound 119, (S)-2-((9-(4-carbamoylbenzyl)-2-chloro-9H-purin-6-yl)amino)-3-hydroxypropanoic acid] | 35 to 60%
38 | CC(=O)Nc1ccc(Nc2ncnc(Cl)c2[N+](=O)[O-])cc1 [Compound 120, N-(4-((6-chloro-5-nitropyrimidin-4-yl)amino)phenyl)acetamide] | 35 to 60%
39 | C[C@H](Nc1nc(Cl)nc2c1ncn2Cc1ccc(C(N)=O)cc1)C(=O)OC(C)(C)C [Compound 121, (S)-tert-butyl 2-((9-(4-carbamoylbenzyl)-2-chloro-9H-purin-6-yl)amino)propanoate] | 10 to 35%
40 | NC(=O)c1ccc(-n2c(=O)[nH]c3c(Cl)ncnc32)cc1 [Compound 122, 4-(6-chloro-8-oxo-7H-purin-9(8H)-yl)benzamide] | 10 to 35%
